Source: patent publication US7473698B2, “Secondary amino anilinic piperidines as MCH1 antagonists and uses thereof” (H. Lunbeck A/S, priority 2003, dated 2009)

Tests used:
rat MCH-1 [1] = biological target: T1, rat MCH-1 (Rattus norvegicus, UniProt P97639); assay: Radioligand binding assay at cloned rat MCH1 receptor, [3H]Compound A, Peakr293 cell membranes; parameters: expressed in transfected cells; host or cells: Human embryonic kidney Peak rapid 293 cells (Peakr293), transient, calcium phosphate; membranes; conditions: 0.08 nM [3H]Compound A, 25° C., 90 minutes
T1 sequence (P97639 whole entry): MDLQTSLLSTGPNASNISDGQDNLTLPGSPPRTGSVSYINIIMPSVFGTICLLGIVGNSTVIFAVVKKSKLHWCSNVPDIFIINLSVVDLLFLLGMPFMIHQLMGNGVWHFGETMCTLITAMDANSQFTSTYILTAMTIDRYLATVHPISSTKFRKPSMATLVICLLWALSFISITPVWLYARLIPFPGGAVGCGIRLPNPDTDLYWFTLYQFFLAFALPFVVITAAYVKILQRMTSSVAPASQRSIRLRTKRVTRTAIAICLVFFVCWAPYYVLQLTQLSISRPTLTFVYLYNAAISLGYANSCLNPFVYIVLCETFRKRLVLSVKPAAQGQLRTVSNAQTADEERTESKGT
Protocol: For binding assays, pellets of transfected cells are suspended in ice-cold buffer (20 mM Tris.HCl, 5 mM EDTA, pH 7.4) and homogenized by sonication for 7 sec. The cell lysates are centrifuged at 200×g for 5 min at 4° C. The supernatants are then centrifuged at 40,000×g for 20 min at 4° C. The resulting pellets are washed once in the homogenization buffer and suspended in binding buffer (see methods for radioligand binding). Protein concentrations are determined by the method of Bradford (1976) using bovine serum albumin as the standard. Binding assays are usually performed immediately, however it is possible to prepare membranes in batch and store frozen in liquid nitrogen for future use.
Radioligand binding assays for the rat MCH1 receptor were carried out using plasmid pcDNA3.1-rMCH1-f (ATCC Patent Deposit Designation No. PTA-3505). Plasmid pcDNA3.1-rMCH1-f comprises the regulatory elements necessary for expression of DNA in a mammalian cell operatively linked to DNA encoding the rat MCH1 receptor so as to permit expression thereof. Plasmid pcDNA3.1-rMCH1-f was deposited on Jul. 5, 2001, with the American Type Culture Collection (ATCC), 12301 Parklawn Drive, Rockville, Md. 20852, U.S.A. under the provisions of the Budapest Treaty for the International Recognition of the Deposit of Microorganisms for the Purposes of Patent Procedure and was accorded ATCC Patent Deposit Designation No. PTA-3505.
Human embryonic kidney Peak rapid 293 cells (Peakr293 cells) were transiently transfected with DNA encoding the MCH1 receptor utilizing the calcium phosphate method and cell membranes were prepared as described above. Binding experiments with membranes from Peakr293 cells transfected with the rat MCH1 receptor were performed with 0.08 nM [^3H]Compound A (custom labeled by Amersham) (the synthesis of Compound A is described in detail below) using an incubation buffer consisting of 50 mM Tris pH 7.4, 10 mM MgCl2, 0.16 mM PMSF, 1 mM 1,10 phenantroline and 0.2% BSA. Binding was performed at 25° C. for 90 minutes. Incubations were terminated by rapid vacuum filtration over GF/C glass fiber filters, presoaked in 5% PEI using […] Tris pH 7.4 as wash buffer. In all experiments, nonspecific binding is defined using […] Compound A.
The compounds described above were assayed using cloned rat MCH1.

rat MCH-1 [2] = biological target: T1, rat MCH-1; conditions: one range printed for rat and human; cited from earlier work
human MCH-1 = human MCH-1 (Homo sapiens, UniProt Q99705); conditions: one range printed for rat and human; cited from earlier work
human MCH-1, sequence (Q99705 whole entry): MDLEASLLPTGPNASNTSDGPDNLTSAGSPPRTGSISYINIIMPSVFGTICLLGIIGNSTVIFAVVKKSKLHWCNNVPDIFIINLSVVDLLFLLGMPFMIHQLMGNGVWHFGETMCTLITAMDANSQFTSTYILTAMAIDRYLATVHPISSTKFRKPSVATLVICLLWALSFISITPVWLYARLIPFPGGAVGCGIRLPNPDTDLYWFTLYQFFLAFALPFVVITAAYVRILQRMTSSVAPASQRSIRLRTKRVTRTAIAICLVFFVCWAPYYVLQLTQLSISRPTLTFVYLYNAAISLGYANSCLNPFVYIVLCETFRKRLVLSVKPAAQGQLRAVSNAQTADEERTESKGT

MCH-1 receptor = MCH-1 receptor (Rattus norvegicus, UniProt P97639); conditions: in vivo; cited from earlier work
MCH-1 receptor, sequence (P97639 whole entry): as the sequence (P97639 whole entry) above

G4F-7 cells = conditions: cited from earlier work

Molecule `COc1ccccc1CCCCC(=O)Nc1cccc(C2CCNCC2)c1` [Example 1, 5-(2-Methoxyphenyl)-N-[3-(4-Piperidinyl)Phenyl]Pentanamide] has a Ki (rat MCH-1 [1]) of 0.0796 µM.
Work on `O=C(CCCCc1ccccc1)Nc1cccc(C2CCNCC2)c1` [Example 2, 5-Phenyl-N-[3-(4-Piperidinyl)Phenyl]Pentanamide] yielded a Ki (rat MCH-1 [1]) of 0.197 µM.
`O=C(CCCCC(=O)c1ccccc1)Nc1cccc(C2CCNCC2)c1` [Example 3, 6-Oxo-6-Phenyl-N-[3-(4-Piperidinyl)Phenyl]Hexanamide] gave a Ki (rat MCH-1 [1]) of 1.1 µM.
`O=C(Nc1cccc(C2CCNCC2)c1)c1cccnc1Oc1ccccc1` [Example 4, 2-Phenoxy-N-[3-(4-Piperidinyl) Phenyl]Nicotinamide] gave a Ki (rat MCH-1 [1]) of 0.353 µM.
`COc1ccc(CCCCC(=O)Nc2cccc(C3CCNCC3)c2)cc1` [Example 5, 5-(4-Methoxyphenyl)-N-[3-(4-Piperidinyl)Phenyl]Pentanamide] gave a Ki (rat MCH-1 [1]) of 0.476 µM.
In the case of `O=C(CCCCCNc1ccc(F)c(F)c1)Nc1cccc(C2CCNCC2)c1` [Example 6, 6-(3,4-Difluoroanilino)-N-[3-(4-Piperidinyl) Phenyl]Hexanamide], the Ki (rat MCH-1 [1]) is reported as 0.438 µM.
In the case of `COC(=O)C1=C(C)NC(=O)N(C(=O)NCCCC(=O)Nc2cccc(C3CCNCC3)c2)C1c1ccc(F)cc1` (centres unmarked) [Example 7, Methyl 4-(4-Fluorophenyl)-6-Methyl-2-Oxo-3-[({4-OXO-4-[3-(4-Piperidinyl)Anilino]Butyl}Amino)Carbonyl]-1,2,3,4-Tetrahydro-5-Pyrimidinecarboxylate], the Ki (rat MCH-1 [1]) is reported as 0.142 µM.
Work on `O=C(CCCCC(=O)c1ccccc1)Nc1cc(C2CCNCC2)ccc1F` [Example 9, N-[2-Fluoro-5-(4-Piperidinyl) Phenyl]-6-Oxo-6-Phenylhexanamide] yielded a Ki (rat MCH-1 [1]) of 0.313 µM.
With `COc1ccccc1CCCCC(=O)Nc1cc(C2CCNCC2)ccc1F` [Example 10, N-[2-Fluoro-5-(4-Piperidinyl)Phenyl]-5-(2-Methoxyphenyl)Pentanamide] the Ki (rat MCH-1 [1]) was 0.0209 µM.
In the case of `COc1ccccc1CCCCC(=O)Nc1cc(C2CCNCC2)c(F)cc1F` [Example 11, N-[2,4-Difluoro-5-(4-Piperidinyl)Phenyl]-5-(2-Methoxyphenyl)Pentanamide], the Ki (rat MCH-1 [1]) is reported as 0.0466 µM.
Work on `O=C(CCc1ccc(Oc2ccc(F)c(F)c2)cc1)Nc1cc(C2CCNCC2)ccc1F` [Example 12, 3-[4-(3,4-Difluorophenoxy)Phenyl]-N-[2-Fluoro-5-(4-Piperidinyl)Phenyl]Propanamide] yielded a Ki (rat MCH-1 [1]) of 0.0338 µM.
In the case of `CN(C)CC1CCc2cc(NC(=O)c3ccc(-c4ccc(F)cc4)cc3)ccc2C1` (centres unmarked) [Example T-226296], the “affinity for the MCH-1 receptor” value (rat MCH-1 [2]) is listed as 5 to 9 nM, the “affinity for the MCH-1 receptor” value (human MCH-1) is listed as 5 to 9 nM and the “food intake induced by the intracerebroventricular application of MCH” value (MCH-1 receptor) is listed as “inhibit food intake”.
In the case of [Phe^13,Tyr^19]-MCH, the Kd (G4F-7 cells; radioiodinated ligand, G4F-7 cells) is listed as 0.000118 µM.
For “native MCH: Melanin-concentrating hormone, a cyclic peptide”, the Ki (G4F-7 cells; inhibition of radioiodinated [Phe13,Tyr19]-MCH binding) is given as 0.012 µM.
In the case of α-MSH, the inhibition of binding (G4F-7 cells; inhibition of radioiodinated [Phe13,Tyr19]-MCH binding, in words) is listed as “not inhibited”.
